Patent US20070111208A1, “Determination of free fractions” (Bayer HealthCare AG, priority 2003, published 2007)

Tests used:
rat plasma [1] = assay: Protein binding via distribution between diluted plasma and Transil (rat plasma); format: in vitro ADME; conditions: Method A (Transil); Wistar rat, male; about 200 μg/l; LC/MS-MS or HPLC
Method: Protein binding of all drugs was determined via partitioning between diluted plasma and Transil® in vitro. All incubations were performed in glass tubes. An isotonic potassium phosphate buffer, pH 7.4 (Dulbeccos PBS, Sigma D8534) was used for diluting the plasma.
The total incubation volume was generally between 0.3 and 1 ml. The diluted plasma (150 to 980 μl) of the test species was pipetted into glass tubes and Transil® (10 to 300 μl) was added. The test substance dissolved in a small volume of a suitable solvent was added to the Transil®-plasma suspensions.
The degree of the dilution and the Transil®-volume should be chosen with respect to the expected fu value. […]
The radioactivity concentration in the suspension was determined directly after incubation. The radioactivity concentration (or the drug concentration in the case of HPLC or LC/MS-MS analytics) in plasma was determined after centrifugation.
The free fraction in diluted plasma was calculated as the ratio of the partition coefficients for the Transil®/plasma′ (MAplasma) and the Transil®/buffer distribution (MAbuffer).
In a second experiment, the total amount in the Transil®-plasma suspension and the concentration in diluted plasma, Cplasma′, were determined. The partitioning between Transil® and the diluted plasma (the apparent membrane affinity in diluted plasma), MAplasma′, was calculated as: [formula] […]

rat plasma [2] = assay: Erythrocyte plasma partitioning (rat plasma); format: in vitro ADME; conditions: Method B (erythrocyte plasma partitioning); Wistar rat, male; about 200 μg/l
Method: Ultrafiltration, equilibrium dialysis and the determination of the free fraction of a drug via distribution between erythrocytes and plasma were performed as previously described^8,12.

fu (rat plasma [1]): 1.62%
fu (rat plasma [2]): 1.49%
SMILES: O=C(NC[C@H]1CN(c2ccc(N3CCOCC3=O)cc2)C(=O)O1)c1ccc(Cl)s1 [Drug III]
